Experimental data taken from patent publication US5489576A, “Therapeutic agent for hemorrhoidal diseases” (Senju Pharmaceutical Co., Ltd., priority 1993, dated 1996).
Where a name gives a salt, the structure may show the parent alone.

Assays:
rectal mucosa = assay: Rectal mucosa irritating action; type: in vivo, Male Wistar rats; settings: intrarectal, 5 h; for Irritation potency, Index value: mean ± standard error (n = 6); for Irritation potency, Central value: score 0-4 of Table 1
Procedure: Rectal Mucosa Irritating Action of Compound (I)
The rectal mucosa irritating action of Compound (I) was examined as in the following.
1. Animals used: Male Wistar rats weighing 135-200 g
2. Test substance: EPC-K added to an oil-in-water type cream
The rats were fasted for 48 hours and the test substance was intrarectally administered. Five hours later, the rats were exsanguinated to death. The rectum was removed and the mucosa was visually observed. The condition of the mucosa was expressed in numerical units according to the evaluation standard shown in Table 1, and a central value and an average value were calculated, based on which the irritation by the test substance was classified according to the evaluation standard for irritation shown in Table 2.

[1] = tested on: recto-anal edema induced by a croton oil mixture; assay: Suppressive effect on recto-anal edema induced by croton oil mixture; type: in vivo, Male Wistar rats; settings: 4% EPC-K in petrolatum, 24 h, * p < 0.05 vs control
Procedure: Effects of Compound (I) on Models with Hemorrhoidal Disease Induced by Croton Oil Mixture
The suppressive effect of Compound (I) on recto-anal edema induced by a croton oil mixture was examined.
1. Animals used: Male Wistar rats weighing 140-250 g
2. Test substance: EPC-K added to petrolatum base material to 4 w/w %
Composition: distilled water:pyridine:diethyl ether:6% croton oil in diethyl ether solution=1:4:5:10
Preparation: Water and a small amount of diethyl ether were added to pyridine and mixed. Then, a 6% croton oil diethyl ether solution was added and the remaining diethyl ether was added thereto. The mixture was vigorously shaken.
A stype of a swab was impregnated with the croton oil mixture (160 μl) and the entire stype was inserted into the rectum for 10 seconds.
5. Determination of edema
The test substance was administered intrarectally immediately after the induction of inflammation, and the anus was sealed for 4 hours with a clip so as to prevent leaking out of the substance.
At 24 hours after the induction of inflammation, the rats were exsanguinated to death and the weight of the recto-anal part, cut out in 15 mm length from 5 mm from the circular hairline on annal epithelium, was measured. The recto-anal coefficient (RAC=Wra·Wb^-1 ·10^3) was calculated on the basis of the weight of the recto-anal part (Wra) and body weight (Wb) and used as an index of inflammation.

[2] = LD50 in rats (acute toxicity); settings: rat, in vivo
Source text: Accordingly, it can be advantageously used for the treatment of hemorrhoidal diseases.

rectal tissues = assay: Wound healing accelerating effect on rectal tissues (hydroxyproline content); type: in vivo, Male Wistar rats; settings: 1% EPC-K, average (n=5)
Procedure: Wound Healing Accelerating Effect of Compound (I) on Rectal Tissues
The wound healing accelerating effect of Compound (I) on rectal tissues was examined using the amount of hydroxyproline (Hyp) in tissue as an index.
1. Animals used: Male Wistar rats weighing 150-250 g
2. Test substance: EPC-K added to an oil-in-water cream to 1 w/w %
The rats were fasted for 24 hours and a narrow saw was inserted in the rectum. A wound was made by two reciprocations of the saw in the rectum. The test substance was injected in the rectum once a day by 100 μl beginning immediately after forming of the wound. The rats were exsanguinated to death at 4 hours, 1, 3, 6 or 9 days thereafter and the rectum was removed. The removed rectum was delipidized, shredded and dried. After acid hydrolysis, pH was adjusted and hydroxyproline content was measured by the chloramine T oxidation method.

[3] = 0.2% EPC-K in oil-in-water cream

Cc1c(C)c2c(c(C)c1OP(=O)(O)OC1=C(O)[C@@H]([C@@H](O)CO)OC1=O)CCC(C)(CCCC(C)CCCC(C)CCCC(C)C)O2 (mixture of isomers) [EPC-K, L-ascorbic acid DL-α-tocopheryl phosphate diester potassium salt]
Irritation potency, Index value (rectal mucosa; [3]): 0.67 ± 0.42
Irritation potency, Central value (rectal mucosa; [3]): 0
Irritation potency, Index value (rectal mucosa; 1% EPC-K in oil-in-water cream): 0.50 ± 0.34
Irritation potency, Central value (rectal mucosa; 1% EPC-K in oil-in-water cream): 0
Irritation potency, Index value (rectal mucosa; 5% EPC-K in oil-in-water cream): 0.83 ± 0.54
Irritation potency, Central value (rectal mucosa; 5% EPC-K in oil-in-water cream): 0
Edema suppression [1]: 19.5%
Recto-anal coefficient (RAC) ([1]; mean ± standard error (n = 10), control 2.36, untreated 0.67): 2.03 ± 0.07
LD50 ([2]; intravenous injection to rats): ≥ 100 mg/kg
LD50 ([2]; oral administration to rats): ≥ 5000 mg/kg
Hydroxyproline content in rectal tissues (rectal tissues; 4 hr later, control 19.67, normal rectum 22.26): 19.38 µg/mg
Hydroxyproline content in rectal tissues (rectal tissues; 1 day later, control 19.69, normal rectum 22.26): 21.70 µg/mg
Hydroxyproline content in rectal tissues (rectal tissues; 3 days later, control 23.46, normal rectum 22.26): 24.75 µg/mg
Hydroxyproline content in rectal tissues (rectal tissues; 6 days later, control 25.63, normal rectum 22.26): 25.22 µg/mg
Hydroxyproline content in rectal tissues (rectal tissues; 9 days later, control 27.38, normal rectum 22.26): 26.53 µg/mg
